Data from patent US20260262643A1, “HERBICIDAL BENZOXAZINES” (FMC CORPORATION, priority 2022, published 2026).

What was measured:
pigweed, palmer [1] = assay: Test C postemergence; format: in vivo, Amaranthus palmeri; details: 10 days, 0 to 100 scale (0 no effect, 100 complete control)
Summary of the method: (§1)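 Visual injury score, 0–100 (100 = complete control), taken 10 days after treatment relative to untreated controls. Pre: directed spray onto soil over sown seeds. Post: foliar spray at one- to two-leaf stage, 2–10 cm. Solvent/surfactant formulation; loam–sand soil; greenhouse.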

blackgrass [2] = assay: Test C preemergence; format: in vivo, Alopecurus myosuroides
Summary of the method: as §1

green foxtail [3] = assay: Test C postemergence; format: in vivo, Setaria viridis; details: 10 days, 0 to 100 scale (0 no effect, 100 complete control)
Summary of the method: as §1

horseweed = assay: Test C postemergence; format: in vivo, Erigeron canadensis; details: 10 days, 0 to 100 scale (0 no effect, 100 complete control)
Summary of the method: as §1

corn [4] = assay: Test C preemergence; format: in vivo, Zea mays
Summary of the method: as §1

ryegrass, Italian [5] = assay: Test C postemergence; format: in vivo, Lolium multiflorum; details: 10 days, 0 to 100 scale (0 no effect, 100 complete control)
Summary of the method: as §1

kochia [6] = assay: Test C postemergence; format: in vivo, Bassia scoparia; details: 10 days, 0 to 100 scale (0 no effect, 100 complete control)
Summary of the method: as §1

barnyardgrass [7] = assay: Test D flooded paddy test; format: in vivo, Echinochloa crus-galli; details: 250 g ai/ha, applied to paddy water, visual rating after 13 to 14 days, scale 0 to 100 (0 no effect, 100 complete control)
Summary of the method: (§2)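 At the 2-leaf stage, floodwater 3 cm deep received the test compound; that depth persisted throughout. Plants scored visually 13 to 14 days on, 0 (no effect) to 100 (complete control), dash indicating no result.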

kochia [8] = assay: Test C preemergence; format: in vivo, Bassia scoparia
Summary of the method: as §1

barnyardgrass [9] = assay: Test C postemergence; format: in vivo, Echinochloa crusgalli; details: 10 days, 0 to 100 scale (0 no effect, 100 complete control)
Summary of the method: as §1

rice = assay: Test D flooded paddy test; format: in vivo, Oryza sativa; details: 250 g ai/ha, applied to paddy water, visual rating after 13 to 14 days, scale 0 to 100 (0 no effect, 100 complete control)
Summary of the method: as §2

soybean [10] = assay: Test C postemergence; format: in vivo, Glycine max; details: 10 days, 0 to 100 scale (0 no effect, 100 complete control)
Summary of the method: as §1

oat, wild [11] = assay: Test C preemergence; format: in vivo, Avena fatua
Summary of the method: as §1

ryegrass, Italian [12] = assay: Test C preemergence; format: in vivo, Lolium multiflorum
Summary of the method: as §1

oat, wild [13] = assay: Test C postemergence; format: in vivo, Avena fatua; details: 10 days, 0 to 100 scale (0 no effect, 100 complete control)
Summary of the method: as §1

sedge, umbrella = assay: Test D flooded paddy test; format: in vivo, Cyperus difformis; details: 250 g ai/ha, applied to paddy water, visual rating after 13 to 14 days, scale 0 to 100 (0 no effect, 100 complete control)
Summary of the method: as §2

ragweed [14] = assay: Test C postemergence; format: in vivo, Ambrosia artemisiifolia; details: 10 days, 0 to 100 scale (0 no effect, 100 complete control)
Summary of the method: as §1

pigweed, palmer [15] = assay: Test C preemergence; format: in vivo, Amaranthus palmeri
Summary of the method: as §1

ragweed [16] = assay: Test C preemergence; format: in vivo, Ambrosia artemisiifolia
Summary of the method: as §1

blackgrass [17] = assay: Test C postemergence; format: in vivo, Alopecurus myosuroides; details: 10 days, 0 to 100 scale (0 no effect, 100 complete control)
Summary of the method: as §1

wheat [18] = assay: Test C postemergence; format: in vivo, Triticum aestivum; details: 10 days, 0 to 100 scale (0 no effect, 100 complete control)
Summary of the method: as §1

green foxtail [19] = assay: Test C preemergence; format: in vivo, Setaria viridis
Summary of the method: as §1

soybean [20] = assay: Test C preemergence; format: in vivo, Glycine max
Summary of the method: as §1

ducksalad = assay: Test D flooded paddy test; format: in vivo, Heteranthera limosa; details: 250 g ai/ha, applied to paddy water, visual rating after 13 to 14 days, scale 0 to 100 (0 no effect, 100 complete control)
Summary of the method: as §2

galium = assay: Test C postemergence; format: in vivo, Galium aparine; details: 10 days, 0 to 100 scale (0 no effect, 100 complete control)
Summary of the method: as §1

barnyardgrass [21] = assay: Test C preemergence; format: in vivo, Echinochloa crusgalli
Summary of the method: as §1

corn [22] = assay: Test C postemergence; format: in vivo, Zea mays; details: 10 days, 0 to 100 scale (0 no effect, 100 complete control)
Summary of the method: as §1

wheat [23] = assay: Test C preemergence; format: in vivo, Triticum aestivum
Summary of the method: as §1

[24] = 500 g ai/ha, preemergence, 0 to 100 scale (0 no effect, 100 complete control)
[25] = Preemergence, 125 g ai/ha, 0 to 100 scale, 0 no effect, 100 complete control

C[C@H]1CN(C(=O)c2cccc(-n3cnc(C4CC4)n3)c2)c2cccc(Cl)c2O1 [Compound 325]
Plant response rating, Pigweed, Palmer (pigweed, palmer [1]; 500 g ai/ha, postemergence): 100
Plant response rating, Pigweed, Palmer (pigweed, palmer [1]; Postemergence, 125 g ai/ha): 90
Blackgrass plant response rating (blackgrass [2]; [24]): 80
Plant response rating, Blackgrass (blackgrass [2]; [25]): 60
Plant response rating, Foxtail, Green (green foxtail [3]; 500 g ai/ha, postemergence): 90
Plant response rating, Foxtail, Green (green foxtail [3]; Postemergence, 125 g ai/ha): 60
Plant response rating, Horseweed (horseweed; 500 g ai/ha, postemergence): 60
Plant response rating, Horseweed (horseweed; Postemergence, 125 g ai/ha): 0
Corn plant response rating (corn [4]; [24]): 10
Plant response rating, Corn (corn [4]; [25]): 10
Plant response rating, Ryegrass, Italian (ryegrass, Italian [5]; 500 g ai/ha, postemergence): 80
Plant response rating, Ryegrass, Italian (ryegrass, Italian [5]; Postemergence, 125 g ai/ha): 30
Plant response rating, Kochia (kochia [6]; 500 g ai/ha, postemergence): 90
Plant response rating, Kochia (kochia [6]; Postemergence, 125 g ai/ha): 90
Plant response rating, Barnyardgrass (Flood) (barnyardgrass [7]): 0
Kochia plant response rating (kochia [8]; [24]): 90
Plant response rating, Kochia (kochia [8]; [25]): 40
Plant response rating, Barnyardgrass (barnyardgrass [9]; 500 g ai/ha, postemergence): 80
Plant response rating, Barnyardgrass (barnyardgrass [9]; Postemergence, 125 g ai/ha): 40
Plant response rating, Rice (Flood) (rice): 0
Plant response rating, Soybean (soybean [10]; 500 g ai/ha, postemergence): 100
Plant response rating, Soybean (soybean [10]; Postemergence, 125 g ai/ha): 100
Oat, Wild plant response rating (oat, wild [11]; [24]): 90
Plant response rating, Oat, Wild (oat, wild [11]; [25]): 60
Ryegrass, Italian plant response rating (ryegrass, Italian [12]; [24]): 90
Plant response rating, Ryegrass, Italian (ryegrass, Italian [12]; [25]): 60
Plant response rating, Oat, Wild (oat, wild [13]; 500 g ai/ha, postemergence): 70
Plant response rating, Oat, Wild (oat, wild [13]; Postemergence, 125 g ai/ha): 10
Plant response rating, Sedge, Umbrella (Flood) (sedge, umbrella): 75
Plant response rating, Ragweed (ragweed [14]; 500 g ai/ha, postemergence): 70
Plant response rating, Ragweed (ragweed [14]; Postemergence, 125 g ai/ha): 50
Pigweed, Palmer plant response rating (pigweed, palmer [15]; [24]): 100
Plant response rating, Pigweed, Palmer (pigweed, palmer [15]; [25]): 100
Ragweed plant response rating (ragweed [16]; [24]): 70
Plant response rating, Ragweed (ragweed [16]; [25]): 20
Plant response rating, Blackgrass (blackgrass [17]; 500 g ai/ha, postemergence): 70
Plant response rating, Blackgrass (blackgrass [17]; Postemergence, 125 g ai/ha): 10
Plant response rating, Wheat (wheat [18]; 500 g ai/ha, postemergence): 60
Plant response rating, Wheat (wheat [18]; Postemergence, 125 g ai/ha): 20
Foxtail, Green plant response rating (green foxtail [19]; [24]): 100
Plant response rating, Foxtail, Green (green foxtail [19]; [25]): 100
Soybean plant response rating (soybean [20]; [24]): 40
Plant response rating, Soybean (soybean [20]; [25]): 40
Plant response rating, Ducksalad (Flood) (ducksalad): 35
Plant response rating, Galium (galium; 500 g ai/ha, postemergence): 100
Plant response rating, Galium (galium; Postemergence, 125 g ai/ha): 100
Barnyardgrass plant response rating (barnyardgrass [21]; [24]): 100
Plant response rating, Barnyardgrass (barnyardgrass [21]; [25]): 40
Plant response rating, Corn (corn [22]; 500 g ai/ha, postemergence): 50
Plant response rating, Corn (corn [22]; Postemergence, 125 g ai/ha): 30
Wheat plant response rating (wheat [23]; [24]): 30
Plant response rating, Wheat (wheat [23]; [25]): 10
